These results are taken from a melting point compilation (Tetko et al.; mined from patent text by program, amines drawn as free bases though some values may be those of a salt).

SMILES strings stand for the structures. Bounds are passed on as bounds.

The compound `CCOC(=O)c1cc(C)nc2c(OCc3ccccc3)cccc12` had a melting point of 134 °C.

In turn, `O=C(OCc1ccccc1)[C@@H]1COC(c2ccccc2OCc2ccccc2)=N1` yielded a melting point of 69 to 71 °C.

`CCOc1ccc(OCC(=O)OC(C)(C)C)c2c1C(=O)N(CCl)S2(=O)=O` came in with a melting point of 117 to 119 °C.

As for `O=C(CF)CS(=O)(=O)C(c1ccc(Cl)cc1)c1ccc(Cl)cc1`, the melting point was in the range of 55 to 58 °C.

The compound `CCCc1c(OCCCCCOc2ccccc2CCCC(=O)O)ccc2c1OCCC2=O` came in with a melting point of 116 to 118 °C.

Turning to `O=c1[nH]c(-c2ccc(CCN3CCN(c4cccc5ccccc45)CC3)cc2)cs1`, the melting point was 307 to 309 °C.

In turn, `CCOC(=O)C(CNC(=O)c1ccccc1)C(=O)C(F)(F)F` (configuration not stated) yielded a melting point of 85 to 88 °C.

On to `CC(=O)NCC1CC1c1cccc2nc(C)cn12` (configuration not stated), for which the melting point was 170 to 171 °C.

With `CC(=O)C(=CN(C)C)C(=O)c1ccccc1`, the melting point lay in the range of 81 to 83 °C.

`CC(O)(C#Cc1ccc(S(=O)(=O)c2ccncc2)cc1)C(F)(F)F` (configuration not stated): the melting point lay in the range of 122 to 125 °C.

With `Cc1ccc(S(=O)(=O)n2ccc3c(Cl)ncnc32)cc1`, the melting point was 143 °C.

The compound `Cc1noc(-c2ccc(C(=O)O)s2)n1` displayed a melting point of 226 to 228 °C.

For `CC1=C(N2CC2)C(=O)c2c([nH]c(CO)c2C)C1=O`, the melting point fell in the range of 224 to 225 °C.

The compound `O=C1CCCCCN1C(=O)N1CCCCCC1=O` came in with a melting point of 115 °C.

Turning to `CCOc1ccc2nc(COc3ccc(CC4SC(=O)N(C(c5ccccc5)(c5ccccc5)c5ccccc5)C4=O)cc3)n(C)c2n1` (configuration not stated), the melting point was 88 to 100 °C.

Take `CC(C)(C)c1ccc(-c2nc(NC(=O)c3ccccc3)sc2-c2ccncc2)cc1`: the melting point was in the range of 292 to 294 °C.

In turn, `CCN1C=C(C(=O)O)C(=O)CC1c1ccc(OC)cc1` (configuration not stated) returned a melting point of 173 to 174 °C.

As to `CNCc1csc(-c2cccc(C3=Nc4cc(N(C)C)c(Cl)cc4NC(=O)C3)c2)n1`, the melting point fell in the range of 129 to 130 °C.

`Cc1c(C(=O)Nc2ccc(N3CCN(CCO)CC3)c(C#N)c2)cnn1C`: the melting point lay in the range of 228 to 230 °C.

`COC(=O)Cc1cccc(CNC(=O)C2Cc3ccccc3N2S(=O)(=O)c2ccc(-c3cccc(C(F)(F)F)c3)cc2)c1` (configuration not stated) had a melting point of 60 °C.

`Cc1ccc(-c2ncnc(-c3cccc(C(=O)O)c3)n2)cc1` had a melting point of 298 to 300 °C.

On to `OC1(c2cccc(Cl)c2)CCN(CCCc2nnc3n2CCCCC3)CC1`, for which the melting point fell in the range of 146 to 148 °C.

In the case of `O=C1COCC2=C1C(c1ccc(F)c(I)c1)C1=C(CCS1(=O)=O)N2` (configuration not stated), the melting point is over 260 °C.

Turning to `O=C(Nc1c[nH]nc1C(=O)NC1CCCCC1)c1ccccn1`, the melting point was in the range of 262 to 263 °C.

As to `COC1=CC(=O)c2c(C)cccc2C1=O`, the melting point fell in the range of 138 to 140 °C.

The compound `CCc1nc(=O)c(CCC(=O)O)c(C)n1Cc1ccc(-c2ccccc2-c2nnn[nH]2)cc1` registered a melting point of 317 to 322 °C.

Turning to `CCCCN(C)S(=O)(=O)C1=C(C)NC(C)=C(C(=O)OCC2CC2)C1c1cccc([N+](=O)[O-])c1` (configuration not stated), the melting point was 93 to 96 °C.

On to `Cc1c(C(C)F)nc[nH]c1=O` (configuration not stated), for which the melting point fell in the range of 108 to 109 °C.

In turn, `CCCCCCCCCCCCCCCCCCNC(=O)OCC(CNS(=O)(=O)CCCI)NC(=O)OCCCC` (configuration not stated) gave a melting point of 96 to 98 °C.

In turn, `O=C(NCCO)c1cccc(-c2ccc3c(c2)C(Oc2ccc(Cl)cc2Cl)CCC3)c1` (configuration not stated) registered a melting point of 171 to 172 °C.

As to `CSCC(C)(C)NC(=O)c1c(I)cccc1C(=O)Nc1ccc(Cn2nc(C(F)(F)F)cc2C(F)(F)F)cc1C`, the melting point is 83 to 87 °C.

`Cn1ccnc1C(=O)Nc1ccc(-n2nc(C(F)(F)F)cc2C2CC2)cc1` came in with a melting point of 132 to 134 °C.

Turning to `CC(C)(CNc1ccnc2cc(Cl)ccc12)NCc1ccc(Cl)cc1Cl`, the melting point was 138 to 139 °C.

Consider `CC(Br)(CC(Cl)(Cl)Cl)c1cccc(Cl)n1` (configuration not stated), for which the melting point lay in the range of 42 to 45 °C.

`CCOC(=O)CCCn1c(Nc2c(C)nn(C)c2C)nc2c(Cl)ccc(C(CC)CC)c21` gave a melting point of 177 to 178 °C.

`NC(=O)c1cc2c(SC3CCCCC3)cncc2s1` registered a melting point of 205 to 207 °C.

For the compound `Cc1cc(CC2CCCCC2)c(NC(=O)OCc2ccccc2)c(=O)n1CC(=O)O`, the melting point turned out to be 150 °C.

In the case of `COC(=O)c1cc(OC(F)F)cnc1C1=NC(C)(C(C)C)C(=O)N1` (configuration not stated), the melting point was in the range of 104 to 105 °C.

For `COC(=O)c1cc2ccc(C(=O)OC(C)(C)C)cc2[nH]1`, the melting point fell in the range of 189 to 190 °C.

For the compound `CC(=O)Nc1cccc(-c2ccc3nnn(Cc4ccc5ncccc5c4)c3n2)c1`, the melting point is 198 to 201 °C.

In the case of `CCOC(=O)C=Cc1ccncc1`, the melting point lay within 64 to 66 °C.

In turn, `COC(=O)CNC(=O)Nc1cc(F)ccc1[N+](=O)[O-]` returned a melting point of 133 to 135 °C.

`O=[N+]([O-])c1ccc(N2CCN(CCO)CC2)cc1` yielded a melting point of 98 to 99 °C.

With `COc1ccc(-c2nc(C(=O)N3CCN(C(=O)NC(C)C)CC3)sc2-c2ccc(OC)cc2)cc1`, the melting point lay in the range of 157 to 159 °C.

As for `N[C@@H](CCC(=O)O)C(=O)N[C@@H](Cc1ccccc1)C(=O)O`, the melting point lay within 147 to 149 °C.

`COc1cc2c(c(Cl)c1Cl)C(=O)C(C)(c1ccccc1)C2c1ccccc1` (configuration not stated) displayed a melting point of 197 to 207 °C.

Take `N#Cc1ccc(CC(=O)Cc2ccc(C#N)cc2)cc1`: the melting point was in the range of 149 to 150 °C.

On to `O=C1c2ccccc2C2(O)Oc3ccc([N+](=O)[O-])cc3C12O` (configuration not stated), for which the melting point is 206 to 207 °C.

In the case of `O=[N+]([O-])c1ccc2c(c1OS(=O)(=O)C(F)(F)F)CCC2`, the melting point lay within 44 to 46 °C.

`CC(C)(C(N)=O)c1nnc2ccc(OCCCN3CCC(OC(c4ccccc4)c4ccccc4)CC3)nn12`: the melting point was 133 to 136 °C.

As for `CCOC(=O)/C=C/c1ccc(C#Cc2ccc3c(c2)C(C)(C)CCC3(C)C)cc1`, the melting point lay in the range of 116 to 118 °C.

Compound `Cc1n[nH]c(-c2ccncc2)c1-c1ccccc1` returned a melting point of 164 to 165 °C.

Consider `COc1ccc(-c2nc(N)sc2CCC2CCCCC2)c(OC)c1`, for which the melting point amounted to 122 °C.

For the compound `CSc1nccn1CC(=O)O`, the melting point came out at 176 °C.

As to `CCCCCCCCCCCCCCCCCCOC(=O)c1ccc(CBr)cc1`, the melting point lay within 53 to 55 °C.

In turn, `COc1ccc(/C=C/c2cc(/C=C/c3c[nH]c4ccccc34)n[nH]2)cc1OCc1ccccn1` yielded a melting point of 232 to 243 °C.

`COC(=O)C=C(N)CC(=O)OC`: the melting point was in the range of 47 to 50 °C.

Compound `O=C(NC(=S)Nc1nc(-c2ccc3c(c2)CCCC3)cs1)c1cccc2ccccc12` displayed a melting point of 216 to 217 °C.

With `NC(=O)CNC(=O)c1cccc(-c2c(F)ccc3cc(Cc4cccc(C(F)(F)F)c4)sc23)c1`, the melting point is 130 to 131 °C.

As to `CC(=O)Oc1ccc(C#C[Si](C)(C)C)cc1`, the melting point came to 45 °C.

Take `CC(C)(COC(=O)c1cc(Cl)c(O)c(Cl)c1)Cc1ccc(CC(C)(C)COC(=O)c2cc(Cl)c(O)c(Cl)c2)cc1`: the melting point is 203 to 204 °C.

With `CCCCc1nc2ccn(CC#N)c(=O)c2n1Cc1ccc(-c2ccccc2C#N)cc1`, the melting point is 64 °C.

Compound `CCCCn1c(=O)c(NC(=O)Nc2cc(CO)ccc2C(C)(C)C)c(-c2cccc(OCc3cccnc3)c2)c2cccnc21` had a melting point of 149 to 150 °C.

The compound `CC(OCc1cc2nc(Cl)ccc2n1S(=O)(=O)c1ccc2ncsc2c1)C(=O)O` (configuration not stated) came in with a melting point of 179 °C.

Compound `COCc1cccc(CNC(=O)c2nc3scc(COCc4ccc(C(=O)O)cc4)c3c(=O)[nH]2)c1` displayed a melting point of 242 to 244 °C.

The compound `O=C(O)c1ccc(C(=O)NS(=O)(=O)c2ccccc2)cc1` yielded a melting point of 259 to 261 °C.

`N#CN=C1CCCCN1C1=CC(CF)(CF)Oc2ccc(C(F)(F)C(F)(F)F)cc21`: the melting point fell in the range of 196 to 197 °C.

Regarding `CCOCC(N=O)C(C)(C)Cl` (configuration not stated), the melting point lay in the range of 84 to 85 °C.

The compound `COc1cc2c(CCN)c[nH]c2cc1Cl` displayed a melting point of 150 °C.

Turning to `CCCC(=O)Cc1ccc(C(=O)Nc2ccc3cc(CN4CCCCC4)cnc3c2C)cc1`, the melting point fell in the range of 164 to 165 °C.

Regarding `N=C(N)NCCCOc1ccc2c(c1)CC(CCC(=O)O)C(=O)N2` (configuration not stated), the melting point was in the range of 168 to 172 °C.

Consider `CC(C)OC(=O)Cc1nc(-c2ccc(F)cc2)oc1-c1ccsc1`, for which the melting point lay in the range of 108 to 110 °C.

In turn, `COc1cc(SCc2sc(-c3ccc(C(F)(F)F)cc3)nc2C)c(C)cc1OCC(=O)O` yielded a melting point of 165 to 167 °C.

As for `CCOC(=O)c1cc2c(C(F)(F)F)cc(C=O)cc2n1C`, the melting point lay in the range of 140 to 141 °C.

`CCCc1nsc(NC(=O)NC)c1C(=O)OCC` showed a melting point of 173 to 174 °C.

Turning to `COc1ccc(C2=NN(C3CCN(C(=O)N4CCNC4=O)CC3)C(=O)[C@H]3CC=CC[C@@H]23)cc1Cl` (relative stereo), the melting point lay in the range of 216 to 218 °C.

`COc1ccc(OCc2ccccc2)cc1C(=O)O` gave a melting point of 114 to 116 °C.

Compound `CCOC(=O)CC(NCCCN(C)C)C(=O)O` (configuration not stated) registered a melting point of 168 to 169 °C.

Consider `O=[N+]([O-])c1cc(Cl)ccc1I(Cl)Cl`, for which the melting point is 53 to 60 °C.

With `CC(C)OC(=O)Cn1c(=O)n(C)c(=O)n(-c2cc(N=c3sc(=O)n4n3CCC=C4)c(F)cc2Cl)c1=O`, the melting point lay in the range of 99 to 111 °C.

As for `COc1ccc(S(=O)(=O)C(C)(Cc2cccc(OCCN3CCCCC3)c2)C(N)=O)cc1` (configuration not stated), the melting point was determined as 74 °C.

In the case of `O=[N+]([O-])c1cccc(C2=NCN(c3cccnc3)S2)c1`, the melting point lay within 109 to 111 °C.

In turn, `CCN(CC)c1ccc2c(c1)OC(=O)C(C)(C#Cc1ccccc1)C2` (configuration not stated) displayed a melting point of 142 to 144 °C.

In turn, `COc1ccc(S(=O)(=O)N2CCc3cccc(NC(=O)c4ccncc4)c32)cc1` displayed a melting point of 219 to 220 °C.

`NC1=NS(=O)N=C1NCCCN(Cc1ccncc1)c1ccccn1` (configuration not stated): the melting point was in the range of 103 to 110 °C.

As for `CCC(C)(C)c1ccc(Oc2cc(N)c(O)c([N+](=O)[O-])c2)c(C(C)(C)CC)c1`, the melting point was 144 to 148 °C.

In the case of `N#Cc1cc(-c2ccccn2)nn1-c1ccc(NC(=O)c2ccncc2F)cc1`, the melting point fell in the range of 118 to 119 °C.

As usually defined, the melting point is the temperature, or range, at which the solid turns liquid.
